Test results reported in the supplement of paper PMC10307832.

What was measured:
Test in all cases: relative viability (nuclei count vs DMSO), 5 days (fraction); higher = more cells survive
[1] = compound: CC(C)(C)c1cc(NC(=O)Nc2ccc(-c3cn4c(n3)sc3cc(OCCN5CCOCC5)ccc34)cc2)no1 [Quizartinib] + CC(=O)Nc1cccc(-n2c(=O)n(C3CC3)c(=O)c3c(Nc4ccc(I)cc4F)n(C)c(=O)c(C)c32)c1 [Trametinib] (partner 0.02 µM)
Procedure, shortened: (§1)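 Relative viability is defined as nuclei in treated wells over nuclei in vehicle wells. Duplicate plates were run and medians reported. Lung cancer cell lines in 1536-well plates were dosed by pin tool one day after seeding, with one drug or with a fixed anchor-drug dose plus five library-drug doses (not always all listed) in √10 steps, and nuclei were counted after 5 days.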

[2] = compound: CC(C)(C)c1cc(NC(=O)Nc2ccc(-c3cn4c(n3)sc3cc(OCCN5CCOCC5)ccc34)cc2)no1 [Quizartinib] + CCNC(=O)c1noc(-c2cc(C(C)C)c(O)cc2O)c1-c1ccc(CN2CCOCC2)cc1 [Luminespib] (partner 0.01 µM)
Procedure, shortened: as §1

[3] = compound: COCC[n+]1c2c(n(Cc3cnccn3)c1C)C(=O)c1ccccc1C2=O [YM155] + CS(=O)(=O)N1CCN(Cc2cc3nc(-c4cccc5[nH]ncc45)nc(N4CCOCC4)c3s2)CC1 [Pictilisib] (partner 1 µM)
Procedure, shortened: as §1

[4] = compound: COCC[n+]1c2c(n(Cc3cnccn3)c1C)C(=O)c1ccccc1C2=O [YM155] + O=C(c1cc(Cc2n[nH]c(=O)c3ccccc23)ccc1F)N1CCN(C(=O)C2CC2)CC1 [Olaparib] (partner 8 µM)
Procedure, shortened: as §1

Cell Line	relative viability ([1]; first compound 0.001 µM)	relative viability ([1]; first compound 0.003162 µM)	relative viability ([1]; first compound 0.01 µM)	relative viability ([1]; first compound 0.03162 µM)	relative viability ([1]; first compound 0.1 µM)	relative viability ([2]; first compound 0.001 µM)	relative viability ([2]; first compound 0.003162 µM)	relative viability ([2]; first compound 0.01 µM)	relative viability ([2]; first compound 0.03162 µM)	relative viability ([2]; first compound 0.1 µM)	relative viability ([3]; first compound 0.002 µM)	relative viability ([3]; first compound 0.006325 µM)	relative viability ([3]; first compound 0.02 µM)	relative viability ([3]; first compound 0.06325 µM)	relative viability ([4]; first compound 0.002 µM)	relative viability ([4]; first compound 0.006325 µM)	relative viability ([4]; first compound 0.02 µM)	relative viability ([4]; first compound 0.06325 µM)
NCI-H1944	0.453	0.405	0.419	0.448	0.313	0.757	0.804	0.774	0.727	0.722	0.358	0.339	0.363	0.379	0.401	0.364	0.404	0.406
HCC-44	0.892	1.05	1.03	1.05	1.03	–	0.99	1.06	0.35	0.996	0.565	0.469	0.674	0.726	0.969	1.03	0.992	1.04
NCI-H460	–	0.152	0.104	–	0.0587	0.0338	0.0373	0.0292	0.0246	0.0321	0.355	0.351	0.413	0.451	0.411	0.444	0.417	0.384
NCI-H1993	0.445	0.46	0.576	0.619	0.527	0.862	1.03	0.965	0.844	0.692	0.697	0.733	0.798	0.789	0.765	1.01	0.79	0.465
LOU-NH91	0.425	0.756	0.817	0.786	0.826	0.317	0.355	0.292	0.362	0.343	0.495	0.519	0.578	0.535	0.894	0.874	0.921	0.745
LCLC-103H	0.658	0.645	0.664	0.712	0.694	1	0.896	0.989	1.04	0.961	0.595	0.654	0.668	0.508	0.738	0.845	0.77	0.801
201T	0.595	0.696	0.755	0.708	0.742	1.01	1.01	0.963	1.01	1.01	0.703	0.677	0.672	0.707	0.813	0.845	0.826	0.874
EKVX	–	0.327	0.331	0.437	0.284	0.673	0.805	0.862	0.829	0.865	0.422	0.497	0.439	0.339	0.912	0.875	0.854	0.401
NCI-H1792	0.374	0.429	0.412	0.457	0.293	–	0.484	0.452	0.321	0.444	0.331	0.289	0.318	0.267	0.382	0.253	0.502	0.454
NCI-H1651	0.715	0.785	0.898	0.797	0.859	0.811	0.794	0.913	0.599	0.92	0.542	0.589	0.556	0.473	0.189	0.19	0.206	0.173
LU99A	0.485	0.503	0.554	0.583	0.518	0.268	0.216	0.234	0.257	0.237	0.354	0.335	0.315	0.284	0.269	0.236	0.255	0.262
LC-2-ad	0.809	0.92	0.899	0.883	0.624	0.938	1.07	0.945	–	0.985	0.455	0.586	0.568	0.452	0.718	0.685	0.695	0.617
A-427	0.517	0.691	0.675	0.591	0.704	1.03	0.777	0.988	0.506	1.01	0.592	0.736	0.802	0.705	0.735	0.556	0.714	0.294
NCI-H2009	0.266	0.251	0.218	0.246	0.247	0.915	1.01	1.07	0.967	1.03	0.8	0.796	0.852	0.57	0.66	0.673	0.582	0.337
LCLC-97TM1	0.158	0.186	0.191	0.216	0.184	0.7	0.6	0.892	0.686	0.759	0.184	0.208	0.221	0.148	–	0.321	0.311	0.376
BEN	0.998	1.02	1.19	0.925	1.22	0.421	0.33	0.307	0.384	0.214	0.53	0.644	0.627	0.578	0.994	1.06	1.11	1.08
NCI-H1650	0.608	0.662	0.556	–	0.564	0.185	0.182	0.19	–	0.172	0.498	0.573	0.532	0.276	0.781	0.699	0.491	0.194
EMC-BAC-2	0.811	0.899	0.865	–	0.857	1.11	1.15	1.2	–	1.23	0.545	0.533	0.556	0.484	0.444	0.44	0.392	0.301
